Reference: patent US10844044B2 (Vanderbilt University, priority 2018, dated 2020)

Target: WDR5 (Homo sapiens (Human), UniProt P61964)
Experiment: TR-FRET binding assay (displacement of 10mer-Thr-FAM probe from WDR5)
Details: read-out: Ki for Inhibition of WDR5 by TR-FRET assay

Row | Structure (SMILES) | Ki
1 | CCn1cc(-c2cc(Cn3ccn(C4CC4)c3=N)cc(C(=O)NCc3ccc(F)c(C)c3)c2)c(C(F)(F)F)n1 [Example 197, 3-((3-Cyclopropyl-2-imino-2,3-dihydro-1H-imidazol-1-yl)methyl)-5-(1-ethyl-3-(trifluoromethyl)-1H-pyrazol-4-yl)-N-(4-fluoro-3-methylbenzyl)benzamide] | < 100 pM
2 | Cc1cc([C@@H](NC(=O)c2cc(Cn3c(C)coc3=N)cc(-c3cccnc3C(F)(F)F)c2)C2CC2)ccc1F [Example 252, (S)—N-(Cyclopropyl(4-fluoro-3-methylphenyl)methyl)-3-((2-imino-4-methyloxazol-3(2H)-yl)methyl)-5-(2-(trifluoromethyl)pyridin-3-yl)benzamide] | 21000 pM
3 | C[C@H](NC(=O)c1cc(Cn2ccoc2=N)cc(-c2cccnc2C(F)(F)F)c1)c1ccc(F)c(Cl)c1 [Example 257, (S)—N-(1-(3-Chloro-4-fluorophenyl)ethyl)-3-((2-iminooxazol-3(2H)-yl)methyl)-5-(2-(trifluoromethyl)pyridin-3-yl)benzamide] | 2000 pM
4 | C[C@H](NC(=O)c1cc(Cn2ccoc2=N)cc(-c2cccnc2C(F)(F)F)c1)c1ccc(C(F)(F)F)cc1 [Example 258] | 5800 pM

Same assay, conditions: read-out: Ki for Inhibition of WDR5 by TR-FRET assay; TR-FRET, 10mer-Thr-FAM probe, WDR5-His tag 2 nM, pH 7.0

Row | Structure (SMILES) | Ki
5 | CCOc1cc(Cn2ccn(C)c2=N)cc(C(=O)NCc2ccc(Cl)c(C)c2)c1 [Example 183, N-(4-Chloro-3-methylbenzyl)-3-ethoxy-5-((2-imino-3-methyl-2,3-dihydro-1H-imidazol-1-yl)methyl)benzamide] | 710 pM
6 | COc1cc(-c2cc(Cn3ccn(C)c3=N)cc(C(=O)NCc3ccc(Cl)c(Cl)c3)c2)c(F)cn1 [Example 184, N-(3,4-dichlorobenzyl)-3-(5-fluoro-2-methoxypyridin-4-yl)-5-((2-imino-3-methyl-2,3-dihydro-1H-imidazol-1-yl)methyl)benzamide] | 560 pM
7 | Cc1cc([C@@H](NC(=O)c2cc(Cn3ccn(C)c3=N)cc(N3CCCC3)c2)C2CC2)ccc1F [Example 206, (S)—N-(Cyclopropyl(4-fluoro-3-methylphenyl)methyl)-3-((2-imino-3-methyl-2,3-dihydro-1H-imidazol-1-yl)methyl)-5-(pyrrolidin-1-yl)benzamide] | 340 pM
8 | Cc1cc([C@@H](NC(=O)c2cc(Cn3ccn(C)c3=N)cc(N3CCCC3)c2)C2CC2)ncc1F [Example 208, (S)—N-(Cyclopropyl(5-fluoro-4-methylpyridin-2-yl)methyl)-3-((2-imino-3-methyl-2,3-dihydro-1H-imidazol-1-yl)methyl)-5-(pyrrolidin-1-yl)benzamide] | 590 pM
9 | Cc1cc([C@@H](NC(=O)c2cc(Cn3ccn(C)c3=N)cc(C3(C(F)(F)F)CC3)c2)C2CC2)ncc1F [Example 218, (S)—N-(cyclopropyl(5-fluoro-4-methylpyridin-2-yl)methyl)-3-((2-imino-3-methyl-2,3-dihydro-1H-imidazol-1-yl)methyl)-5-(1-(trifluoromethyl)cyclopropyl)benzamide] | < 100 pM
10 | Cc1cc([C@@H](NC(=O)c2cc(Cn3ccn(C)c3=N)cc(N3CCC[C@@H]3C(F)(F)F)c2)C2CC2)ccc1F [Example 222, N—((S)-Cyclopropyl(4-fluoro-3-methylphenyl)methyl)-3-((2-imino-3-methyl-2,3-dihydro-1H-imidazol-1-yl)methyl)-5-((R)-2-(trifluoromethyl)pyrrolidin-1-yl)benzamide] | 330 pM
11 | Cc1cc([C@@H](NC(=O)c2cc(Cn3ccn(C)c3=N)cc(N3CCC[C@H]3C(F)(F)F)c2)C2CC2)ccc1F [Example 223] | 1300 pM
12 | Cc1cc([C@@H](NC(=O)c2cc(Cn3ccn(C)c3=N)cc(-n3ccnc3C)c2)C2CC2)ccc1F [Example 224, (S)—N-(Cyclopropyl(4-fluoro-3-methylphenyl)methyl)-3-((2-imino-3-methyl-2,3-dihydro-H-imidazol-1-yl)methyl)-5-(2-methyl-1H-imidazol-1-yl)benzamide] | 140 pM
13 | CCn1cc(-c2cc(Cn3ccn(C)c3=N)cc(C(=O)N[C@H](c3ccc(F)c(C)c3)C3CC3)c2)c(C)n1 [Example 225, (S)—N-(Cyclopropyl(4-fluoro-3-methylphenyl)methyl)-3-(1-ethyl-3-methyl-1H-pyrazol-4-yl)-5-((2-imino-3-methyl-2,3-dihydro-1H-imidazol-1-yl)methyl)benzamide] | < 100 pM
14 | Cc1cc([C@@H](NC(=O)c2cc(Cn3ccn(C)c3=N)cc(N3CCC[C@H]3C)c2)C2CC2)ccc1F [Example 226, N—((S)-Cyclopropyl(4-fluoro-3-methylphenyl)methyl)-3-((2-imino-3-methyl-2,3-dihydro-1H-imidazol-1-yl)methyl)-5-((R)-2-methylpyrrolidin-1-yl)benzamide] | 7100 pM
15 | Cc1ccnc(C(NC(=O)c2cc(Cn3ccoc3=N)cc(-c3ncccc3C(F)(F)F)c2)C2CC2)c1 (stereo not shown) [Example 237, N-(Cyclopropyl(4-methylpyridin-2-yl)methyl)-3-((2-iminooxazol-3(2H)-yl)methyl)-5-(3-(trifluoromethyl)pyridin-2-yl)benzamide] | 7500 pM
16 | Cc1cc([C@@H](NC(=O)c2cc(Cn3ccoc3=N)cc(-c3cncnc3C(F)(F)F)c2)C2CC2)ccc1F [Example 255, (S)—N-(Cyclopropyl(4-fluoro-3-methylphenyl)methyl)-3-((2-iminooxazol-3(2H)-yl)methyl)-5-(4-(trifluoromethyl)pyrimidin-5-yl)benzamide] | 620 pM
17 | CCc1coc(=N)n1Cc1cc(C(=O)N[C@H](c2ccc(F)c(C)c2)C2CC2)cc(-c2cccnc2C(F)(F)F)c1 [Example 256, (S)—N-(Cyclopropyl(4-fluoro-3-methylphenyl)methyl)-3-((4-ethyl-2-iminooxazol-3(2H)-yl)methyl)-5-(2-(trifluoromethyl)pyridin-3-yl)benzamide] | 2700 pM
18 | C[C@H](NC(=O)c1cc(Cn2ccoc2=N)cc(-c2cccnc2C(F)(F)F)c1)c1ncc(F)cn1 [Example 262, (S)—N-(1-(5-Fluoropyrimidin-2-yl)ethyl)-3-((2-iminooxazol-3(2H)-yl)methyl)-5-(2-(trifluoromethyl)pyridin-3-yl)benzamide] | > 33000 pM
19 | Cc1cc([C@@H](NC(=O)c2cc(Cn3ccoc3=N)cc(C3CC3)c2)C2CC2)ccc1F [Example 265, (S)-3-cyclopropyl-N-(cyclopropyl(4-fluoro-3-methylphenyl)methyl)-5-((2-iminooxazol-3(2H)-yl)methyl)benzamide] | 780 pM
20 | Cc1cc([C@@H](NC(=O)c2cc(CN3CCCOC3=N)cc(-c3cccnc3C(F)(F)F)c2)C2CC2)ccc1F [Example 266, (S)—N-(Cyclopropyl(4-fluoro-3-methylphenyl)methyl)-3-((2-imino-1,3-oxazinan-3-yl)methyl)-5-(2-(trifluoromethyl)pyridin-3-yl)benzamide] | 16000 pM
21 | N=c1occn1Cc1cc(C(=O)N[C@H](c2ccc(Cl)c(Cl)c2)C2CC2)cc(-c2ccc(F)cc2OC(F)F)c1 [Example 270, (S)—N-(Cyclopropyl(3,4-dichlorophenyl)ethyl)-2′-(difluoromethoxy)-4′-fluoro-5-((2-iminooxazol-3(2)-yl)methyl)-[1,1′-biphenyl]-3-carboxamide] | 180 pM
22 | N=c1occn1Cc1cc(C(=O)N[C@H](c2ccc(Cl)c(Cl)c2)C2CC2)cc(-c2cccnc2C(F)(F)F)c1 [Example 271, (S)—N-(Cyclopropyl(3,4-dichlorophenyl)methyl)-3-((2-iminooxazol-3(2H)-yl)methyl)-5-(2-(trifluoromethyl)pyridin-3-yl)benzamide] | 720 pM
